Patent US20080280879A1, “SUBSTITUTED HETEROCYCLIC DERIVATIVES AND THEIR PHARMACEUTICAL USE AND COMPOSITIONS” (priority 2007, published 2008)
Values after ≈ are worked out from the molar mass of the structure shown.

How the values were obtained:
Format in all cases: cell-based, Staphylococcus aureus
Staph aureus 1146 [1] = assay: MIC, microtiter broth dilution (CLSI M7-A7), Assay 1, Table 12 column B, no serum; details: for MIC: Staphylococcus aureus, 1146, Staph aureus 1146, Assay 1, no serum; for MIC, column B: Staph aureus 1146, Assay 1, no serum
Summary of the method: (§1)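 Staphylococcus aureus susceptibility is measured by CLSI M7-A7 broth microdilution in microtiter trays. For serum testing, bacteria are inoculated into Mueller-Hinton Broth containing 50% pooled inactivated human serum. The MIC in μg/ml is the lowest concentration preventing visible growth.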

Staph aureus 1095 MRSA = assay: MIC, microtiter broth dilution (CLSI M7-A7), Assay 1, Table 12 column A, no serum; details: Assay 1, no serum; for MIC: Staphylococcus aureus, MRSA
Summary of the method: as §1

Staph aureus 2811 = assay: MIC, microtiter broth dilution (CLSI M7-A7), Assay 1, Table 12 column D, no serum; details: for MIC: Staphylococcus aureus, 2811, Staph aureus 2811, Assay 1, no serum; for MIC, column D: Staph aureus 2811, Assay 1, no serum
Summary of the method: as §1

Staph aureus 1146 [2] = assay: MIC in Mueller-Hinton Broth with 50% pooled inactivated human serum, Assay 1, Table 12; details: for MIC: Staphylococcus aureus, 1146, Staph aureus 1146, Assay 1, 50% human serum, read-out: MIC, column C; for MIC, column C: Staph aureus 1146, Assay 1, 50% human serum
Summary of the method: as §1

Staph aureus 2812 = assay: MIC, microtiter broth dilution (CLSI M7-A7), Assay 1, Table 12 column E, no serum; details: for MIC: Staphylococcus aureus, 2812, Staph aureus 2812, Assay 1, no serum; for MIC, column E: Staph aureus 2812, Assay 1, no serum
Summary of the method: as §1

| Structure (SMILES) | MIC (Staph aureus 1146 [1]) | MIC (Staph aureus 1095 MRSA) | MIC (Staph aureus 2811) | MIC (Staph aureus 1146 [2]) | MIC (Staph aureus 2812) | MIC, column B (Staph aureus 1146 [1]) | MIC, column C (Staph aureus 1146 [2]) | MIC, column E (Staph aureus 2812) | MIC, column A (Staph aureus 1095 MRSA) | MIC, column D (Staph aureus 2811) |
| --- | --- | --- | --- | --- | --- | --- | --- | --- | --- | --- |
| COc1ccc2ncc(Cl)c(CCNC3(C(=O)O)CCN(C4CC(c5ccccc5)C4)CC3)c2c1 (centres unmarked) [Example 100, 4-{[2-(3-chloro-6-methoxyquinolin-4-yl)ethyl]amino}-1-(3-phenylcyclobutyl)piperidine-4-carboxylic acid] | 0.5 µg/mL (≈ 1.01 µM) | 0.5 µg/mL (≈ 1.01 µM) | 0.25 µg/mL (≈ 0.506 µM) | > 64 µg/mL | 0.5 µg/mL (≈ 1.01 µM) |  |  |  |  |  |
| COc1ccc2ncc(F)c(C(O)CC[C@@H]3CCN(C4CC(c5ccccc5)C4)C[C@@H]3C(=O)O)c2c1 (single isomer, unassigned) [Example 15] |  | 0.0884 µg/mL (≈ 0.179 µM) | 0.0625 µg/mL (≈ 0.127 µM) |  |  | 0.0156 µg/mL (≈ 0.0317 µM) | 0.25 µg/mL (≈ 0.508 µM) | 0.03125 µg/mL (≈ 0.0634 µM) |  |  |
| COc1ccc2ncc(F)c([C@@H](O)CNC3(C(=O)O)CCCN(C4CC(c5ccccc5)C4)CC3)c2c1 (single isomer, unassigned) [Example 150] |  |  |  |  |  | 2 µg/mL (≈ 3.94 µM) | 4 µg/mL (≈ 7.88 µM) | 2 µg/mL (≈ 3.94 µM) | 4 µg/mL (≈ 7.88 µM) | 2 µg/mL (≈ 3.94 µM) |
| COc1ccc2ncc(F)c(C(O)CC[C@@H]3CCN([C@H]4C[C@H](c5c(F)cccc5F)C4)C[C@@H]3C(=O)O)c2c1 (stereo partly drawn) [Example 215, (3R,4R)-1-[trans-3-(2,6-difluorophenyl)cyclobutyl]-4-[3-(3-fluoro-6-methoxyquinolin-4-yl)-3-hydroxypropyl] piperidine-3-carboxylic acid] | < 0.0625 µg/mL | < 0.0625 µg/mL | < 0.0625 µg/mL | 1 µg/mL (≈ 1.89 µM) | < 0.0625 µg/mL |  |  |  |  |  |
| COc1ccc2nccc(C(CC[C@@H]3CCN(C4CC(c5ccccc5)C4)C[C@@H]3C(=O)O)N3CCOCC3)c2c1 (some centres unmarked) [Example 139] |  |  |  |  |  | 2 µg/mL (≈ 3.68 µM) | 16 µg/mL (≈ 29.4 µM) | 2 µg/mL (≈ 3.68 µM) | 2 µg/mL (≈ 3.68 µM) | 4 µg/mL (≈ 7.36 µM) |
| COc1ccc2ncc(Cl)c(C(O)CC[C@@H]3CCN(C4CC(c5c(F)cccc5F)C4)C[C@@H]3C(=O)O)c2c1 (stereo partly drawn) [Example 188, (3R,4R)-4-[3-(3-chloro-6-methoxyquinolin-4-yl)-3-hydroxypropyl]-1-[3-(2,6-difluorophenyl)cyclobutyl]piperidine-3-carboxylic acid] | < 0.0625 µg/mL | < 0.0625 µg/mL | < 0.0625 µg/mL |  | < 0.0625 µg/mL |  | 0.500 µg/mL (≈ 0.917 µM) |  |  |  |
| COc1ccc2nccc(C(O)CC[C@@H]3CCN(C4CC(c5cc(F)ccc5F)C4)C[C@@H]3C(=O)O)c2c1 (stereo partly drawn) [Example 38, (3R,4R)-1-[3-(2,5-difluorophenyl)cyclobutyl]-4-[3-hydroxy-3-(6-methoxyquinolin-4-yl)propyl] piperidine-3-carboxylic acid] | 0.125 µg/mL (≈ 0.245 µM) | 0.25 µg/mL (≈ 0.49 µM) | 0.125 µg/mL (≈ 0.245 µM) | 4 µg/mL (≈ 7.83 µM) | 0.125 µg/mL (≈ 0.245 µM) |  |  |  |  |  |
| COc1ccc2nccc(C(O)CC[C@@H]3CCN(C4CN(C5CCCC5)C4)C[C@@H]3C(=O)O)c2c1 (stereo partly drawn) [Example 132, (3R,4R)-1-(1-cyclopentylazetidin-3-yl)-4-[3-hydroxy-3-(6-methoxyquinolin-4-yl)propyl]piperidine-3-carboxylic acid] | > 64 µg/mL | > 64 µg/mL | > 64 µg/mL | > 64 µg/mL | > 64 µg/mL |  |  |  |  |  |
| COc1ccc2ncc(F)c(C(O)CC[C@@H]3CCN(C4CC(c5c(F)cccc5F)C4)C[C@@H]3C(=O)O)c2c1 (single isomer, unassigned) [Example 19] |  |  |  |  |  | <=.0625 μg/ml | 0.5 µg/mL (≈ 0.946 µM) | <=.0625 μg/ml | <=.0625 μg/ml | <=.0625 μg/ml |
| COc1ccc2nccc(C(O)CC[C@@H]3CCN(C4CC(c5cccc(F)c5F)C4)C[C@@H]3C(=O)O)c2c1 (stereo partly drawn) [Example 36, (3R,4R)-1-[3-(2,3-difluorophenyl)cyclobutyl]-4-[3-hydroxy-3-(6-methoxyquinolin-4-yl)propyl] piperidine-3-carboxylic acid] | ≤ 0.0625 µg/mL | 0.125 µg/mL (≈ 0.245 µM) | ≤ 0.0625 µg/mL | 2 µg/mL (≈ 3.92 µM) | ≤ 0.0625 µg/mL |  |  |  |  |  |
| COc1ccc2nccc(C(O)CC[C@@H]3CCN(C4CC(c5nnc(C)o5)C4)C[C@@H]3C(=O)O)c2c1 (stereo partly drawn) [Example 110, (3R,4R)-4-[3-hydroxy-3-(6-methoxyquinolin-4-yl)propyl]-1-[3-(5-methyl-1,3,4-oxadiazol-2-yl)cyclobutyl]piperidine-3-carboxylic acid] | 32 µg/mL (≈ 66.6 µM) | > 64 µg/mL | > 64 µg/mL | > 64 µg/mL | > 64 µg/mL |  |  |  |  |  |
| COc1ccc2nccc(C(O)CC[C@@H]3CCN(C4CC(c5ccccc5C)C4)C[C@@H]3C(=O)O)c2c1 (stereo partly drawn) [Example 34, (3R,4R)-4-[3-hydroxy-3-(6-methoxyquinolin-4-yl)propyl]-1-[3-(2-methylphenyl)cyclobutyl] piperidine-3-carboxylic acid] | 1 µg/mL (≈ 2.05 µM) | 1 µg/mL (≈ 2.05 µM) | 0.5 µg/mL (≈ 1.02 µM) | 16 µg/mL (≈ 32.7 µM) | 0.5 µg/mL (≈ 1.02 µM) |  |  |  |  |  |
| COc1ccc2nccc([C@@H](O)CC[C@@H]3CCN(C4CC(C5CCCC5)C4)C[C@@H]3C(=O)O)c2c1 (stereo partly drawn) [Example 47, (3R,4R)-1-(3-cyclopentylcyclobutyl)-4-[(3S)-3-hydroxy-3-(6-methoxyquinolin-4-yl)propyl]piperidine-3-carboxylic acid] | ≤ 0.0625 µg/mL | 0.125 µg/mL (≈ 0.268 µM) | ≤ 0.0625 µg/mL | 0.5 µg/mL (≈ 1.07 µM) | 0.125 µg/mL (≈ 0.268 µM) |  |  |  |  |  |
| COc1ccc2nccc([C@@H](O)CC[C@@H]3CCN(C4CC(c5c(F)cccc5F)C4C)C[C@@H]3C(=O)O)c2c1 (stereo partly drawn) [Example 67, (3R,4R)-1-[(2,3)-3-(2,6-difluorophenyl)-2-methylcyclobutyl]-4-[(3S)-3-hydroxy-3-(6-methoxyquinolin-4-yl)propyl]piperidine-3-carboxylic acid] |  |  |  |  |  | <=.0625 μg/ml | 2 µg/mL (≈ 3.81 µM) | 0.125 µg/mL (≈ 0.238 µM) | 0.125 µg/mL (≈ 0.238 µM) | <=.0625 μg/ml |
| COc1ccc2ncc(F)c(C(O)CC[C@@H]3CCN(C4CC(c5c(F)cccc5F)C4)C[C@@H]3C(=O)O)c2n1 (stereo partly drawn) [Example 189, (3R,4R)-1-[3-(2,6-difluorophenyl)cyclobutyl]-4-[3-(3-fluoro-6-methoxy-1,5-naphthyridin-4-yl)-3-hydroxypropyl]piperidine-3-carboxylic acid] |  |  |  |  |  | <0.0625 µg/mL | 0.125 µg/mL (≈ 0.236 µM) | <0.0625 µg/mL | <0.0625 µg/mL | <0.0625 µg/mL |
| COc1ccc2nccc(C(O)CC[C@@H]3CCN(C4CC(Cc5cc(F)ccc5F)C4)C[C@@H]3C(=O)O)c2c1 (stereo partly drawn) [Example 202, (3R,4R)-1-[3-(2,5-difluorobenzyl)cyclobutyl]-4-[3-hydroxy-3-(6-methoxyquinolin-4-yl)propyl]piperidine-3-carboxylic acid] | 2 µg/mL (≈ 3.81 µM) | 8 µg/mL (≈ 15.2 µM) | 2 µg/mL (≈ 3.81 µM) | 64 µg/mL (≈ 122 µM) | 4 µg/mL (≈ 7.62 µM) |  |  |  |  |  |
| COc1ccc2nccc([C@@H](O)CC[C@@H]3CCN(C4CC(c5ccc(C(F)(F)F)cc5F)C4)C[C@@H]3C(=O)O)c2c1 (stereo partly drawn) [Example 194, (3R,4R)-1-{3-[2-fluoro-4-(trifluoromethyl)phenyl]cyclobutyl}-4-[(3S)-3-hydroxy-3-(6-methoxyquinolin-4-yl)propyl]piperidine-3-carboxylic acid] | 2 µg/mL (≈ 3.57 µM) | 4 µg/mL (≈ 7.14 µM) | 2 µg/mL (≈ 3.57 µM) | > 64 µg/mL | 2 µg/mL (≈ 3.57 µM) |  |  |  |  |  |
| CNC(CC[C@@H]1CCN(C2CC(c3ccccc3)C2)C[C@@H]1C(=O)O)c1ccnc2ccc(OC)cc12 (stereo partly drawn) [Example 136, (3R,4R)-4-[3-(6-Methoxy-quinolin-4-yl)-3-methylamino-propyl]-1-(3-phenyl-cyclobutyl)-piperidine-3-carboxylic acid] | 4 µg/mL (≈ 8.2 µM) | 8 µg/mL (≈ 16.4 µM) | 4 µg/mL (≈ 8.2 µM) | 4 µg/mL (≈ 8.2 µM) | 8 µg/mL (≈ 16.4 µM) |  |  |  |  |  |
| COc1ccc2ncc(F)c(C(O)CC[C@@H]3CCN(C4CC(c5cc(F)ccc5F)C4)C[C@@H]3C(=O)O)c2n1 (stereo partly drawn) [Example 205, (3R,4R)-1-[3-(2,5-difluorophenyl)cyclobutyl]-4-[3-(3-fluoro-6-methoxy-1,5-naphthyridin-4-yl)-3-hydroxypropyl]piperidine-3-carboxylic acid] | < 0.0625 µg/mL | < 0.0625 µg/mL | < 0.0625 µg/mL | 2 µg/mL (≈ 3.78 µM) | < 0.0625 µg/mL |  |  |  |  |  |
| COc1ccc2nccc(C(O)CC[C@@H]3CCN(C4CC(CC5CCCO5)C4)C[C@@H]3C(=O)O)c2c1 (stereo partly drawn) [Example 52, (3R,4R)-4-[3-hydroxy-3-(6-methoxyquinolin-4-yl)propyl]-1-[3-(tetrahydrofuran-2-ylmethyl)cyclobutyl]piperidine-3-carboxylic acid] | 16 µg/mL (≈ 33.2 µM) | > 64 µg/mL | 8 µg/mL (≈ 16.6 µM) | 16 µg/mL (≈ 33.2 µM) | 32 µg/mL (≈ 66.3 µM) |  |  |  |  |  |
| COc1ccc2nccc(C(O)CC[C@@H]3CCN(C4CC(C5CCOCC5)C4)C[C@@H]3C(=O)O)c2c1 (stereo partly drawn) [Example 50, (3R,4R)-4-[3-hydroxy-3-(6-methoxyquinolin-4-yl)propyl]-1-[3-(tetrahydro-2H-pyran-4-yl)cyclobutyl] piperidine-3-carboxylic acid] | 32 µg/mL (≈ 66.3 µM) | 32 µg/mL (≈ 66.3 µM) | 64 µg/mL (≈ 133 µM) | 32 µg/mL (≈ 66.3 µM) | 64 µg/mL (≈ 133 µM) |  |  |  |  |  |
| COc1ccc2ncc(Cl)c(CCNC3(C(=O)O)CCCN(C4CC(c5c(F)cccc5F)C4)CC3)c2c1 (centres unmarked) [Example 154, 4-{[2-(3-chloro-6-methoxyquinolin-4-yl)ethyl]amino}-1-[3-(2,6-difluorophenyl)cyclobutyl]azepane-4-carboxylic acid] | 0.0625 µg/mL (≈ 0.115 µM) | 0.25 µg/mL (≈ 0.46 µM) | 0.0625 µg/mL (≈ 0.115 µM) | 4 µg/mL (≈ 7.35 µM) | 0.0625 µg/mL (≈ 0.115 µM) |  |  |  |  |  |
